This passage reports IC50 results from patent US8951999B2, “Compounds” (Orexo AB, priority 2009, dated 2015).

The target of the experiment is T1, recombinant human mPGES-1 (Homo sapiens, UniProt O14684).
T1 sequence (O14684 1-152): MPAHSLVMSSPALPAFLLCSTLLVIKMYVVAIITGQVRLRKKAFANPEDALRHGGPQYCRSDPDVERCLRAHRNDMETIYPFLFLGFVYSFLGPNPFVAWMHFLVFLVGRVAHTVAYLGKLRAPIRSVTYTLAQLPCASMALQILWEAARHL
Description: Assay B: mPGES-1 enzyme assay (modified). It is filed as biochemical. The settings on record: biological assay B (all other compounds); PGH2 final conc. 2 μM, HTRF; read-out: mPGES-1 inhibitory effect IC50. The gist of the method: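 Microsomal recombinant human mPGES-1 preincubated 25 min at room temperature with compound in pH 7.4 phosphate buffer containing 2.5 mmol/L GSH; reaction started with 2 μM PGH2 (final), stopped with FeCl2 after 60 s. PGE2 quantified by HTRF against calibration curve; IC50 by nonlinear regression after background subtraction.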
Consider `CC(C)(C)C(=O)NCc1ccc(Cl)c(C(=O)Nc2ccc(OC3CCOC3)c(C(=O)Nc3ccc(Br)cc3)c2)c1` (centres unmarked) [Example 66, N-[4-(Tetrahydrofuran-3-yloxy)-3-(4-bromophenyl)aminocarbonyl-phenyl]-2-chloro-5-(tert-butyl-carbonylaminomethyl)-benzamide], for which the IC50 came to 5 nM.
On to `CC(C)(C(=O)NCc1ccc(Cl)c(C(=O)Nc2ccc(OCC(F)F)c(C(=O)NC3CCC4(CC3)CC4)c2)c1)C(F)(F)F` [Example 136], for which the IC50 came out at 7 nM.
Turning to `CC(C)(C(=O)NCc1ccc(Cl)c(C(=O)Nc2ccc(OCC(F)F)c(C(=O)NC3CC4CCC3C4)c2)c1)C(F)(F)F` (centres unmarked) [Example 124], the IC50 is 5 nM.
Consider `CC(C)(C(=O)NCc1ccc(Cl)c(C(=O)Nc2ccc(OCC(F)F)c(C(=O)NCc3ncccc3C(F)(F)F)c2)c1)C(F)(F)F` [Example 138], for which the IC50 is 5 nM.
Then `CC(C)(C)NC(=O)c1cc(NC(=O)c2c(Cl)ccc(CNC(=O)C(C)(C)C(F)(F)F)c2F)ccc1OCC(F)F` [Example 78], with 2 nM.
Regarding `COCC1(CNC(=O)c2cc(NC(=O)c3cc(CNC(=O)C(C)(C)C(F)(F)F)ccc3Cl)ccc2OCC(F)F)CCCC1` [Example 88], the concentration for half-maximal inhibition (IC50) turned out to be 9 nM.
Take `CC(C)(C(=O)NCc1ccc(Cl)c(C(=O)Nc2ccc(OCC(F)F)c(C(=O)NCc3ccc(C(F)(F)F)cc3)c2)c1)C(F)(F)F` [Example 104]: the IC50 came to 10 nM.
Then `O=C(Nc1ccc(Br)cc1)c1cc(NC(=O)c2c(F)ccc(CNC(=O)C(F)(F)F)c2Cl)ccc1OCC(F)F` [Example 43, N-[4-(2,2-Difluoroethyl)oxy-3-(4-bromophenyl)aminocarbonyl-phenyl]-6-fluor-2-chlor-3-(trifluormethylcarbonylamino)methyl-benzamide], with 120 nM; and `CC(C)C(O)C(=O)NCc1ccc(Cl)c(C(=O)Nc2ccc(OCC(F)F)c(C(=O)Nc3ccc(Br)cc3)c2)c1` (centres unmarked) [Example 175], with 9 nM; and `CC(C)(C(=O)NCc1ccc(Cl)c(C(=O)Nc2ccc(OCC(F)F)c(C(=O)NC3CCC(C(F)F)CC3)c2)c1Cl)C(F)(F)F` (centres unmarked) [Example 149], with 4 nM.
Take `CN1CCC[C@H]1C(=O)NCc1ccc(Cl)c(C(=O)Nc2ccc(OCC(F)F)c(C(=O)Nc3ccc(Br)cc3)c2)c1` [Example 161]: the IC50 stood at 13 nM.
On to `Cc1ccc(CNC(=O)C(C)(C)C)c(Cl)c1C(=O)Nc1ccc(OCC(F)F)c(C(=O)Nc2ccc(Br)cc2)c1` [Example 52, N-[4-(2,2-Difluoroethyl)oxy-3-(4-bromophenyl)aminocarbonyl-phenyl]-2-chloro-6-methyl-3-(tert-butylcarbonylamino)methyl-benzamide], for which the concentration for half-maximal inhibition (IC50) was determined as 4 nM.
As for `CC(C)(C(=O)NCc1ccc(Cl)c(C(=O)Nc2ccc(OCC(F)F)c(C(=O)Nc3ccc(Br)cc3)c2)c1)C(F)(F)F` [Example 81], the 50% inhibitory concentration (IC50) came out at 2 nM.
With `CC(C)(C(=O)NCc1ccc(Cl)c(C(=O)Nc2ccc(OCC(F)F)c(C(=O)NCC3CC3)c2)c1Cl)C(F)(F)F` [Example 152], the IC50 turned out to be 11 nM.
Regarding `CC(C)(C(=O)NCc1ccc(Cl)c(C(=O)Nc2ccc(OCC(F)F)c(C(=O)Nc3c(F)ccc(F)c3F)c2)c1F)C(F)(F)F` [Example 79], the IC50 was 5 nM.
In the case of `CC(C)(C(=O)NCc1ccc(Cl)c(C(=O)Nc2ccc(OCC(F)F)c(C(=O)Nc3ccc(Cl)c(F)c3)c2)c1Cl)C(F)(F)F` [Example 156], the IC50 amounted to 1 nM.
The value for `COc1cc(Cl)ccc1NC(=O)c1cc(NC(=O)c2cc(CNC(=O)C(C)(C)C(F)(F)F)ccc2Cl)ccc1OCC(F)F` [Example 91] was 6 nM.
The value for `CC(C)(C(=O)NCc1ccc(Cl)c(C(=O)Nc2ccc(OCC(F)F)c(C(=O)Nc3ccccc3Cl)c2)c1)C(F)(F)F` [Example 139] was 6 nM.
In the case of `CC(C)(C(=O)NCc1ccc(Cl)c(C(=O)Nc2ccc(OCC(F)F)c(C(=O)Nc3cccc(F)c3)c2)c1)C(F)(F)F` [Example 119], the IC50 is 5 nM.
Turning to `CC(C)(C(=O)NCc1ccc(Cl)c(C(=O)Nc2ccc(OCC(F)F)c(C(=O)NCc3ccccc3OC(F)(F)F)c2)c1)C(F)(F)F` [Example 132], the IC50 was found to be 6 nM.
